Molecules are shown by their SMILES. ≈ marks a conversion by molar mass, not a printed value. A value given as a limit tells only on which side of the number the result lay.

The first assay has as its target Pseudomonas aeruginosa LpxC enzyme (Pseudomonas aeruginosa (strain ATCC 15692 / DSM 22644 / CIP 104116 / JCM 14847 / LMG 12228 / 1C / PRS 101 / PAO1), UniProt P47205). In words: biochemical. In kind it is biochemical.
Settings: not given
The molecule `CNC(=O)C(C(=O)NO)N(C)C(=O)c1ccc(C#Cc2ccc(CN3C4CCC3CC4)cc2)cc1` (stereo not drawn) [Compound 527, 2-{[(4-{[4-(7-azabicyclo[2.2.1]hept-7-ylmethyl)phenyl]ethynyl}phenyl)carbonyl](methyl)amino}-N-hydroxy-N′-methylpropanediamide] showed an IC50 of 10 to 100 nM.

Staying with this assay, now noted: class symbols A/B/C by IC50; Table 3; read-out: Enzyme inhibitory activity (inhibitory activity on Pseudomonas aeruginosa LpxC enzyme).
`CNC(=O)C(C(=O)NO)N(C)C(=O)c1ccc(C#Cc2ccc(CN3CC4(CCC4)C3)cc2)cc1` (stereo not drawn) [Compound 524, 2-{[(4-{[4-(2-azaspiro[3.3]hept-2-ylmethyl)phenyl]ethynyl}phenyl)carbonyl](methyl)amino}-N-hydroxy-N′-methylpropanediamide]: the IC50 lay in the range of 10 to 100 nM. Same read-out and setting: as for `CNC(=O)C(C(=O)NO)N(C)C(=O)c1ccc(C#Cc2ccc(CN3CC(C)(C)C3)cc2)cc1` (stereo not drawn) [Compound 525, 2-[{[4-({4-[(3,3-dimethylazetidin-1-yl)methyl]phenyl}ethynyl)phenyl]carbonyl}(methyl)amino]-N-hydroxy-N′-methylpropanediamide], the figure is 10 to 100 nM; as for `CNC(=O)C(C(=O)NO)N(C)C(=O)c1ccc(C#Cc2ccc(CN3CC(=CCOC)C3)cc2)cc1` (stereo not drawn) [Compound 530, N-hydroxy-2-[({4-[(4-{[3-(2-methoxyethylidene)azetidin-1-yl]methyl}phenyl)ethynyl]phenyl}carbonyl)(methyl)amino]-N′-methylpropanediamide], less than 10 nM; as for `CCOC1CN(Cc2ccc(C#Cc3ccc(C(=O)N(C)C(C(=O)NC)C(=O)NO)cc3)cc2)C1` (stereo not drawn) [Compound 535, 2-[{[4-({4-[(3-ethoxyazetidin-1-yl)methyl]phenyl}ethynyl)phenyl]carbonyl}(methyl)amino]-N-hydroxy-N′-methylpropanediamide], less than 10 nM. As for `CCOC1CN(Cc2ccc(C#Cc3ccc(C(=O)N(C)C(C(=O)NC)C(=O)NO)cc3)cc2C)C1` (stereo not drawn) [Compound 562, 2-[{[4-({4-[(3-ethoxyazetidin-1-yl)methyl]-3-methylphenyl}ethynyl)phenyl]carbonyl}(methyl)amino]-N-hydroxy-N′-methylpropanediamide], the IC50 is less than 10 nM. Still for that read-out and setting: as for `CCOC1CN(Cc2ccc(C#Cc3ccc(C(=O)N(C)C(C(=O)NC)C(=O)NO)cc3)c(F)c2)C1` (stereo not drawn) [Compound 564, 2-[{[4-({4-[(3-ethoxyazetidin-1-yl)methyl]-2-fluorophenyl}ethynyl)phenyl]carbonyl}(methyl)amino]-N-hydroxy-N′-methylpropanediamide], the figure is less than 10 nM. For the molecule `CCOC1CN(Cc2ccc(C#Cc3ccc(C(=O)N(C)C(C(=O)NC)C(=O)NO)cc3)c(C)c2)C1` (stereo not drawn) [Compound 568, 2-[{[4-({4-[(3-ethoxyazetidin-1-yl)methyl]-2-methylphenyl}ethynyl)phenyl]carbonyl}(methyl)amino]-N-hydroxy-N′-methylpropanediamide], the IC50 is less than 10 nM. Same read-out and setting: as for `CCOC1CN(Cc2ccc(C#Cc3ccc(C(=O)N(C)C(C(=O)NC)C(=O)NO)cc3)cc2OC)C1` (stereo not drawn) [Compound 572, 2-[{[4-({4-[(3-ethoxyazetidin-1-yl)methyl]-3-methoxyphenyl}ethynyl)phenyl]carbonyl}(methyl)amino]-N-hydroxy-N′-methylpropanediamide], the figure is 10 to 100 nM; as for `CCOC1CN(Cc2ccc(C#Cc3ccc(C(=O)N(C)C(C(=O)NC)C(=O)NO)cc3)cc2C(F)(F)F)C1` (stereo not drawn) [Compound 573, 2-[{[4-({4-[(3-ethoxyazetidin-1-yl)methyl]-3-(trifluoromethyl)phenyl}ethynyl)phenyl]carbonyl}(methyl)amino]-N-hydroxy-N′-methylpropanediamide], less than 10 nM. In the case of `CCOC1CN(Cc2ccc(C#Cc3ccc(C(=O)N(C)C(C(=O)NC)C(=O)NO)cc3)c(C(F)(F)F)c2)C1` (stereo not drawn) [Compound 574, 2-[{[4-({4-[(3-ethoxyazetidin-1-yl)methyl]-2-(trifluoromethyl)phenyl}ethynyl)phenyl]carbonyl}(methyl)amino]-N-hydroxy-N′-methylpropanediamide], the IC50 was less than 10 nM. Same read-out and setting: as for `CNC(=O)[C@@](C)(C(=O)NO)N(C)C(=O)c1ccc(C#Cc2coc(C)n2)cc1` [Compound 575, (2S)-N-hydroxy-N′,2-dimethyl-2-[methyl({4-[(2-methyl-1,3-oxazol-4-yl)ethynyl]phenyl}carbonyl)amino]propanediamide], the figure is less than 10 nM; as for `CNC(=O)[C@@](C)(C(=O)NO)N(C)C(=O)c1ccc(C#Cc2cc(C)on2)cc1` [Compound 576, (2S)-N-hydroxy-N′,2-dimethyl-2-[methyl({4-[(5-methyl-1,2-oxazol-3-yl)ethynyl]phenyl}carbonyl)amino]propanediamide], less than 10 nM.

On to `CCOC1CN(Cc2ccc(C#Cc3ccc(C(=O)N(C)C(C(=O)NC)C(=O)NO)cc3)cc2Cl)C1` (stereo not drawn) [Compound 579, 2-[{[4-({3-chloro-4-[(3-ethoxyazetidin-1-yl)methyl]phenyl}ethynyl)phenyl]carbonyl}(methyl)amino]-N-hydroxy-N′-methylpropanediamide], for which the IC50 is less than 10 nM. Same read-out and setting: to `CCOC1CN(Cc2ccc(C#Cc3ccc(C(=O)N(C)C(C(=O)NC)C(=O)NO)cc3)c(F)c2F)C1` (stereo not drawn) [Compound 580, 2-[{[4-({4-[(3-ethoxyazetidin-1-yl)methyl]-2,3-difluorophenyl}ethynyl)phenyl]carbonyl}(methyl)amino]-N-hydroxy-N′-methylpropanediamide] belongs less than 10 nM. As for `CCOC1CN(Cc2ccc(C#Cc3ccc(C(=O)N(C)C(C(=O)NC)C(=O)NO)cc3F)cc2)C1` (stereo not drawn) [Compound 581, 2-[{[4-({4-[(3-ethoxyazetidin-1-yl)methyl]phenyl}ethynyl)-3-fluorophenyl]carbonyl}(methyl)amino]-N-hydroxy-N′-methylpropanediamide], the IC50 is less than 10 nM. Still for that read-out and setting: to `CCOC1CN(Cc2ccc(C#Cc3ccc(C(=O)N(C)C(C(=O)NC)C(=O)NO)cc3C)cc2)C1` (stereo not drawn) [Compound 582, 2-[{[4-({4-[(3-ethoxyazetidin-1-yl)methyl]phenyl}ethynyl)-3-methylphenyl]carbonyl}(methyl)amino]-N-hydroxy-N′-methylpropanediamide] belongs less than 10 nM; to `CNC(=O)[C@@](C)(C(=O)NO)N(C)C(=O)c1ccc(C#Cc2coc(CN3CCCOCC3)c2)cc1` [Compound 583, (2S)-N-hydroxy-N′,2-dimethyl-2-{methyl[(4-{[5-(1,4-oxazepan-4-ylmethyl)furan-3-yl]ethynyl}phenyl)carbonyl]amino}propanediamide], less than 10 nM.

Consider `CCOC1CN(Cc2cc(C#Cc3ccc(C(=O)N(C)[C@@](C)(C(=O)NC)C(=O)NO)cc3)co2)C1` [Compound 584, (2S)-2-[{[4-({5-[(3-ethoxyazetidin-1-yl)methyl]furan-3-yl}ethynyl)phenyl]carbonyl}(methyl)amino]-N-hydroxy-N′,2-dimethylpropanediamide], for which the IC50 is less than 10 nM.

As for `CNC(=O)[C@@](C)(C(=O)NO)N(C)C(=O)c1ccc(C#Cc2csc(C)n2)cc1` [Compound 586, (2S)-N-hydroxy-N′,2-dimethyl-2-[methyl({4-[(2-methyl-1,3-thiazol-4-yl)ethynyl]phenyl}carbonyl)amino]propanediamide], the IC50 lay within 10 to 100 nM.

As for `CNC(=O)[C@@](C)(C(=O)NO)N(C)C(=O)c1ccc(C#C/C=C/C2CCOCC2)cc1` [Compound 590, (2S)-N-hydroxy-N′,2-dimethyl-2-(methyl {4-[(3E)-4-(tetrahydro-2H-pyran-4-yl)but-3-en-1-yn-1-yl]benzoyl}amino)propanediamide], the IC50 is less than 10 nM. The same measure, in the same setting: as for `CNC(=O)[C@@](C)(C(=O)NO)N(C)C(=O)c1ccc(C#Cc2coc(CN3CCOCC3)c2)cc1` [Compound 592, (2S)-N-hydroxy-N′,2-dimethyl-2-[methyl(4-{[5-(morpholin-4-ylmethyl)furan-3-yl]ethynyl}benzoyl)amino]propanediamide], the figure is less than 10 nM.

In the case of `CNC(=O)[C@@](C)(C(=O)NO)N(C)C(=O)c1ccc(C#C/C=C/C2CC2COC)cc1` (stereo partly drawn) [Compound 596, (2S)-N-hydroxy-2-[(4-{(3E)-4-[2-(methoxymethyl)cyclopropyl]but-3-en-1-yn-1-yl}benzoyl)(methyl)amino]-N′,2-dimethylpropanediamide], the IC50 is less than 10 nM. Consider `CNC(=O)[C@@](C)(C(=O)NO)N(C)C(=O)c1ccc(C#C/C=C/CCCOC)cc1` [Compound 597, (2S)-N-hydroxy-2-[{4-[(3E)-7-methoxyhept-3-en-1-yn-1-yl]benzoyl}(methyl)amino]-N′,2-dimethylpropanediamide], for which the IC50 was less than 10 nM. Same read-out and setting: to `CCOCc1cc(C#Cc2ccc(C(=O)N(C)[C@@](C)(C(=O)NC)C(=O)NO)cc2)co1` [Compound 612, (2S)-2-[(4-{[5-(ethoxymethyl)furan-3-yl]ethynyl}benzoyl)(methyl)amino]-N-hydroxy-N′,2-dimethylpropanediamide] belongs less than 10 nM; to `CNC(=O)[C@@](C)(C(=O)NO)N(C)C(=O)c1ccc(C#Cc2coc(CO)c2)cc1` [Compound 616, (2S)-N-hydroxy-2-[(4-{[5-(hydroxymethyl)furan-3-yl]ethynyl}benzoyl)(methyl)amino]-N′,2-dimethylpropanediamide], less than 10 nM.

The next assay concerns Pseudomonas aeruginosa strain TS88 (clinical isolate). The assay is described as follows: Antimicrobial activity, MIC by broth microdilution. To be noted: Table 1, 35° C., 18 hours, read-out: MIC Pseudomonas aeruginosa TS88 strain. In kind it is cell-based. The text has this:
Test 3: Evaluation of Antimicrobial Activity For minimum inhibitory concentration (MIC) measurement, the following broth microdilution method was applied as adapted from the standard procedure recommended by the CLSI (Clinical and Laboratory Standards Institute). The bacteria used were Pseudomonas aeruginosa strain TS88 (clinical isolate), E. coli strain ATCC25922, and Klebsiella pneumoniae strain ATCC13883. After culture overnight on a heart infusion agar medium, the cells of a test bacterium were scraped off and suspended to give a turbidity of level 0.5 on the McFarland scale; the suspension was then diluted 10 fold to prepare an inoculum solution. A 0.005 mL aliquot of the inoculum solution was inoculated in a cation-adjusted Mueller-Hinton broth medium containing a test compound and cultured at 35° C. for 18 hours. A minimum drug concentration at which no cell growth was visible to the naked eye was designated as MIC.
In general terms: In broth dilution the organism is exposed to a series of concentrations in liquid medium.
As usually defined, the MIC is the least concentration at which growth counts as inhibited. Take `CNC(=O)C(C(=O)NO)N(C)C(=O)c1ccc(-c2ccc(OCCCN3CCOCC3)cc2)cc1` (stereo not drawn) [Compound 7, N-hydroxy-N′-methyl-2-[methyl({4′-[3-(morpholin-4-yl)propoxy]biphenyl-4-yl}carbonyl)amino]propanediamide]: the MIC came to 2 µg/mL (≈ 4.13 µM).

For the origin of these results see US9073821B2, “Hydroxamic acid derivative” (priority 2010, dated 2015).
